# Values of other authors, collected in patent publication US11530415B2, “Genetically engineered Streptomyces capable of thaxtomin production in the absence of thaxtomin-inducing conditions and methods of producing thaxtomin” (University of Florida Research Foundation, Inc., priority 2017, dated 2022).
# Test system: cellulose biosynthesis
# Conditions: background statement, no method given
smiles,measurement,value
"CN1C(=O)[C@](O)(Cc2cccc(O)c2)N(C)C(=O)[C@@H]1Cc1c[nH]c2cccc([N+](=O)[O-])c12 [Thaxtomin A, thaxtomin A]",potency in inhibiting cellulose biosynthesis,excellent potency (in an nM range)
